Assay results published in ChEMBL document CHEMBL6103583, “Purified Monascus Pigments: Biological Activities and Mechanisms of Action” (J Nat Prod, 2025).
In brackets after ≈: the same amount, converted by molar mass.

How the values were obtained:
RAW264.7 [1] = assay: Antiinflammatory activity against mouse RAW264.7 cells assessed as inhibition of LPS-NO production by Griess reagent based assay; assay type: functional, cell-based
HEp-2 [2] = assay: Antiproliferative activity against human HEp-2 cells assessed as reduction in cell growth incubated for 3 days by MTT assay; assay type: functional, cell-based; settings: HEp-2, 72 h
WiDr [3] = assay: Antiproliferative activity against human WiDr cells assessed as reduction in cell growth incubated for 3 days by MTT assay; assay type: functional, cell-based; settings: 72 h
RAW264.7 [4] = assay: Antiinflammatory activity against mouse RAW264.7 cells assessed as inhibition of LPS-NO production incubated for 24 hrs by Griess reagent based assay; assay type: functional, cell-based; settings: RAW264.7, 24 h
WiDr [5] = assay: Antiproliferative activity against human WiDr cells assessed as reduction in cell viability incubated for 72 hrs by MTT assay; assay type: functional, cell-based
HEp-2 [6] = assay: Antiproliferative activity against human HEp-2 cells assessed as reduction in cell viability incubated for 72 hrs by MTT assay; assay type: functional, cell-based; settings: HEp-2, 72 h
HeLa [7] = assay: Antiproliferative activity against human HeLa cells assessed as reduction in cell viability incubated for 24 hrs by MTT assay; assay type: functional, cell-based
SH-SY5Y = assay: Antiproliferative activity against human SH-SY5Y cells assessed as reduction in cell viability incubated for 24 hrs by MTT assay; assay type: functional, cell-based
AGS = assay: Antiproliferative activity against human AGS cells assessed as reduction in cell viability incubated for 24 hrs by MTT assay; assay type: functional, cell-based
MKN-45 = assay: Antiproliferative activity against human MKN-45 cells assessed as reduction in cell viability incubated for 24 hrs by MTT assay; assay type: functional, cell-based; settings: MKN-45, 24 h
HT-29 = assay: Antiproliferative activity against human HT-29 cells assessed as reduction in cell viability incubated for 24 hrs by MTT assay; assay type: functional, cell-based; settings: HT-29, 24 h
BGC-823 = assay: Antiproliferative activity against human BGC-823 cells assessed as reduction in cell viability incubated for 24 hrs by MTT assay; assay type: functional, cell-based; settings: BGC-823, 24 h
HeLa [8] = assay: Antiproliferative activity against human HeLa cells assessed as reduction in cell viability incubated for 24 hrs under light irradiation by MTT assay; assay type: functional, cell-based; settings: light or radiation study
HepG2 = assay: Antiproliferative activity against human HepG2 cells assessed as reduction in cell viability incubated for 24 hrs by MTT assay; assay type: functional, cell-based; settings: HepG2, 24 h
Candida albicans = assay: Antifungal activity against Candida albicans KCCM 10231 assessed as reduction in […] incubated for 12 hrs by micro-dilution method; assay type: functional
Aspergillus niger = assay: Antifungal activity against Aspergillus niger KCCM 11239 assessed as reduction in […] incubated for 12 hrs by micro-dilution method; assay type: functional
[9] = Antibacterial activity against Salmonella choleraesuis KCCM 11806 assessed as reduction in bacterial growth; assay type: functional, Salmonella enterica subsp. enterica serovar Choleraesuis; settings: Salmonella enterica
Escherichia coli [10] = assay: Antibacterial activity against Escherichia coli KCCM 11234 assessed as reduction in bacterial growth incubated for 12 hrs by broth micro-dilution method; assay type: functional
Escherichia coli [11] = assay: Antibacterial activity against Escherichia coli KCCM 11234 assessed as reduction in bacterial growth incubated; assay type: functional
Bacillus subtilis = assay: Antibacterial activity against Bacillus subtilis KCCM 11316 assessed as reduction in bacterial growth incubated for 12 hrs by broth micro-dilution method; assay type: functional
Proteus vulgaris = assay: Antibacterial activity against Proteus vulgaris KCCM 11906 assessed as reduction in bacterial growth incubated for 12 hrs by broth micro-dilution method; assay type: functional
Shigella sonnei = assay: Antibacterial activity against Shigella sonnei KCCM 40253 assessed as reduction in bacterial growth incubated for 12 hrs by micro-dilution method; assay type: functional
Haemophilus influenzae = assay: Antibacterial activity against Haemophilus influenzae KCCM 11903 assessed as reduction in bacterial growth incubated for 12 hrs by broth micro-dilution method; assay type: functional
Penicillium digitatum = assay: Antifungal activity against Penicillium digitatum KCCM 60140 assessed as reduction in […] incubated for 12 hrs by micro-dilution method; assay type: functional
Penicillium citrinum = assay: Antifungal activity against Penicillium citrinum KCCM 11663 assessed as reduction in […] incubated for 12 hrs by micro-dilution method; assay type: functional
Pseudomonas aeruginosa = assay: Antibacterial activity against Pseudomonas aeruginosa KCCM 11328 assessed as reduction in bacterial growth incubated for 12 hrs by micro-dilution method; assay type: functional
Klebsiella aerogenes = assay: Antibacterial activity against Enterobacter aerogenes KCCM 12177 assessed as reduction in bacterial growth incubated for 12 hrs by broth micro-dilution method; assay type: functional
Staphylococcus aureus [12] = assay: Antibacterial activity against Staphylococcus aureus KCCM 11817 assessed as reduction in bacterial growth incubated for 12 hrs by broth micro-dilution method; assay type: functional
Salmonella typhimurium = assay: Antibacterial activity against Salmonella Typhimurium KCCM 11806 assessed as reduction in bacterial growth incubated for 12 hrs by micro-dilution method; assay type: functional, Salmonella enterica subsp. enterica serovar Typhimurium; settings: Salmonella enterica
Enterococcus faecalis = assay: Antibacterial activity against Enterococcus faecalis KCCM 11814 assessed as reduction in bacterial growth incubated for 12 hrs by broth micro-dilution method; assay type: functional
Staphylococcus aureus [13] = assay: Antibacterial activity against Staphylococcus aureus […] assessed as reduction in bacterial growth incubated for 12 hrs by broth micro-dilution method; assay type: functional
PC-3 = assay: Antiproliferative activity against human PC-3 cells assessed as reduction in cell viability incubated for 48 hrs by MTT assay; assay type: functional, cell-based; settings: PC-3, 48 h
LNCaP = assay: Antiproliferative activity against human LNCaP cells assessed as reduction in cell viability incubated for 48 hrs by MTT assay; assay type: functional, cell-based

## C/C=C/C1=CC2=C(CO1)C(=O)[C@](C)(O)[C@@H](CC(=O)CCCCCCC)C2
RAW264.7 [1]
  IC50: 19.7 µM
HEp-2 [2]
  IC50: 21 µM
WiDr [3]
  IC50: 55.8 µM

## CCCCCC(=O)C[C@@H]1CC(CC(=O)CCC)=C(C)C(=O)[C@]1(C)O
HEp-2 [2]
  IC50: 124 µM
WiDr [3]
  IC50: 142 µM

## C/C=C/C1=CC2=CC3=C(C(=O)CCCCC)C(=O)OC3(C)C(=O)C2=CN1CCO (stereo not given)
RAW264.7 [4]
  IC50: 27.5 µM

## CCCCCCCCCC(=O)[C@H]1C(=O)O[C@]2(C)C(=O)C=C3C=C(CC(C)OC(C)=O)OC=C3[C@H]12 (stereo not given in full)
RAW264.7 [4]
  IC50: 16.6 µM

## C/C=C/C1=CC2=CC3=C(C(=O)CCCCCCC)C(=O)O[C@@]3(C)[C@@H](O)C2=CO1
WiDr [5]
  IC50: 8.6 µM
HEp-2 [6]
  IC50: 9.8 µM
RAW264.7 [4]
  IC50: 0.99 µM

## C/C=C/C1=CC2=CC3=C(C(=O)CCCCC)C(=O)O[C@@]3(C)C(=O)C2=CO1
WiDr [5]
  IC50: 109 µM
HeLa [7]
  IC50: 93.7 µM
SH-SY5Y
  IC50: 30.9 µM
AGS
  IC50: 7.98 µM
MKN-45
  IC50: 14.3 µM
HT-29
  IC50: 36.7 µM
HEp-2 [6]
  IC50: 107 µM
BGC-823
  IC50: 12.6 µM
HeLa [8]
  IC50: 24 µM
RAW264.7 [4]
  IC50: 21.2 µM
HepG2
  IC50: 44.2 µM

## C/C=C/C1=CC2=CC3=C(C(=O)CCCCC)C(=O)O[C@@]3(C)[C@@H](O)C2=CO1
WiDr [5]
  IC50: 15.7 µM
HEp-2 [6]
  IC50: 14.8 µM
RAW264.7 [4]
  IC50: 3.65 µM

## C/C=C/C1=CC2=CC3=C(C(=O)CCCCC)C(=O)OC3(C)C(=O)C2=CN1 (stereo not given)
RAW264.7 [4]
  IC50: 12.5 µM

## N[C@H](Cc1ccccc1)C(=O)O [D-PHENYLALANINE]
Candida albicans
  MIC: 8 µg/mL (≈ 48.4 µM)
Aspergillus niger
  MIC: 8 µg/mL (≈ 48.4 µM)
[9]
  MIC: 4 µg/mL (≈ 24.2 µM)
Escherichia coli [10]
  MIC: 8 µg/mL (≈ 48.4 µM)
Escherichia coli [11]
  MIC: 8 µg/mL (≈ 48.4 µM)
Bacillus subtilis
  MIC: 8 µg/mL (≈ 48.4 µM)
Proteus vulgaris
  MIC: 16 µg/mL (≈ 96.9 µM)
Shigella sonnei
  MIC: 16 µg/mL (≈ 96.9 µM)
Haemophilus influenzae
  MIC: 16 µg/mL (≈ 96.9 µM)
Penicillium digitatum
  MIC: 16 µg/mL (≈ 96.9 µM)
Penicillium citrinum
  MIC: 8 µg/mL (≈ 48.4 µM)
Pseudomonas aeruginosa
  MIC: 16 µg/mL (≈ 96.9 µM)
Klebsiella aerogenes
  MIC: 16 µg/mL (≈ 96.9 µM)
Staphylococcus aureus [12]
  MIC: 16 µg/mL (≈ 96.9 µM)
Salmonella typhimurium
  MIC: 8 µg/mL (≈ 48.4 µM)
Enterococcus faecalis
  MIC: 8 µg/mL (≈ 48.4 µM)
Staphylococcus aureus [13]
  MIC: 8 µg/mL (≈ 48.4 µM)

## C/C=C/C1=CC2=C(CO1)C(=O)[C@]1(C)OC(=O)[C@H](C(O)CCCCC)[C@H]1C2 (stereo not given in full)
PC-3
  IC50: 47 µM
LNCaP
  IC50: 45 µM

## C/C=C/c1cc2c(cn1)C(=O)[C@](C)(O)[C@@H](CC(=O)CCCCCCC)C2
RAW264.7 [4]
  IC50: 74.7 µM
